Measurements as given in patent US20140142140A1, “PHARMACEUTICAL COMPOSITION FOR NEUROLOGICAL DISORDERS” (priority 2011, published 2014).
Read-outs that look alike come from different tables or passages of the source.

How the values were obtained:
[1] = test system: patients with PTSD; assay: Case reports, PTSD (Example 9); assay type: in vivo, human
Excerpt: Patient 9A: Two year history of PTSD & Major Depression, unable to work for nine months. […] Eight months specialist psychiatric treatment including specific PTSD therapy program. […] No history of premorbid ASD or ADHD, possible mild reading difficulties.
Patient 9B: 40 year history of severe PTSD associated with severe re-experiencing phenomena, absence of any family relationships and social withdrawal, anger outbursts, chronic sleep disturbance exaggerated startle reflex and hypervigilance. Comorbid conditions including chronic major depression, alcohol dependence. Attended regular psychiatric treatment for in excess of five years. Treated with a combination of regular outpatient psychotherapy and pharmacotherapy including antidepressants and antipsychotic medications.
Patient 9C: history of PTSD associated with chronic impairment in previous alcohol dependence. Previous psychiatric admissions as a consequence of condition. Long-term antidepressant therapy together with intermittent use of antipsychotic medication.

[2] = test system: patients with bipolar mood disorder; assay: Case report, Bipolar (Example 8); assay type: in vivo, human
[3] = test system: patients with schizophrenia; assay: Case reports, Schizophrenia (Example 7); assay type: in vivo, human
Excerpt: Patient 7A: Adult, initially diagnosed with schizophrenia in adolescence. Long history of impairment with predominant paranoid delusions controlled with antipsychotic medication although still experiencing significant relapses despite consistent adherence to the pharmacotherapy regime. Significant social impairment, unable to sustain employment and requires support. Prominent negative symptoms and social deficits, unable to sustain eye contact when speaking. Speech slow, effortful and fatiguing. […] Prosody and rate of speech both improved. Patient 7B: Adult initially diagnosed with schizophrenia during adolescence, following many years of prominent positive symptoms with severe behavioural disturbances and violence requiring periods of hospitalisation. Patient has never been able to sustain employment and requires significant social support to maintain functioning. Prominent thought disorder and general social disengagement. […] Able to sustain and enjoy social interaction in a sheltered workshop which had never occurred previously.

[4] = test system: patients with closed head injury; assay: Case reports, Acquired Brain Injury (Example 4); assay type: in vivo, human
[5] = cited from earlier work
[6] = test system: patients with Alzheimer's type dementia; assay: Case reports, Mild Cognitive Impairment (MCI) and Dementia (Example 1); assay type: in vivo, human
Excerpt: Patient 1A was an elderly person with history of impairment of cognitive function. Presumptive diagnosis of possible dementia of Alzheimers type.
Patient 1B was an elderly retired person with a 7 year history of Alzheimer's type dementia treated with the cholinesterase inhibitor Donepezil. […] Their cognitive function has gradually deteriorated since this time. […] Their reading was more fluent being better able to follow the meaning of the text. There was also improvement in their Stroop Test particularly in part three, the more cognitively demanding where their accuracy improved from 50 to 90%.

[7] = test system: patient with tardive dyskinsia; assay: Case report, Tardive Dyskinesia (Example 10); assay type: in vivo, human; conditions: Patient 10A; test dose of 1 mg
Excerpt: Patient 10A was an elderly person with a history of post-dramatic stress disorder treated with long-term antipsychotic medication.

[8] = test system: patients with visual fatigue / impaired visual acuity; assay: Case reports, Visual fatigue / visual acuity (Example 5); assay type: in vivo, human; conditions: for three-dimensional delicate work (visual acuity and depth perception): Patient 5d
Excerpt: Adult with a history of ADHD stabilised on a combination of a psychostimulant and sodium valproate.
Adult diagnosed with ADHD and stable on treatment with psychostimulants. […] Previously always relied on glasses to read because of an astigmatism.
Adult previously diagnosed with ADHD and no longer taking stimulant medication.

[9] = test system: patients with PTSD; conditions: cited from earlier work
[10] = test system: patients with reading / learning difficulties; assay: Case reports, Reading Disorder (Example 2); assay type: in vivo, human
Excerpt: They noticed greater contrast when reading. This had reduced their dependency upon spectacles which they had relied on for many years. […] Patient described an unexpected improvement in the clarity and contrast of the words and letters, further commenting on the improvement in their ability to both see and comprehend the words simultaneously. Patient also described a reduction in the instability or movement of the words on the page which had always been experienced when reading. Also further commented on the subjective improvement in vision, with an apparent improved depth perception. […] Patient noticed greater contrast in the text when reading and this had reduced their dependency upon spectacles which they had relied on for many years. […] The patient has been able to sustain employment with considerable effort. Reading had always been effortful and largely unrewarding. Patient had described difficulties tracking along the text being frequently distracted by the lines above and below becoming lost on the page as well as having little recall or comprehension of what they had read.

[11] = test system: patient with chronic neck pain; assay: Case report, Chronic Pain (Example 12); assay type: in vivo, human
Description: A further sublingual dose of phenyloin 1 mg was taken 15 mins after the first dose.

[12] = Patient 4A, test dose less than 3 mg via buccal mucosa
[13] = Patient 4B, test sublingual dose 1 mg

## O=C1NC(=O)C(c2ccccc2)(c2ccccc2)N1 [phenyloin, 5,5-diphenylhydantoin]
[1]; Patient 9A
  duration improvements maintained: over three months
[1]; Patient 9A, 2 mg daily
  time to reported improvements: ≤ 24 h
[1]; Patient 9A, dose reduced to 1 mg and increased to 4 mg
  efficacy after dose change: reduction in efficacy
[1]; Patient 9B, low dose
  overall improvement described: 50%
[1]; Patient 9C
  most stable and efficacious dose: 0.5 mg daily
[1]; Patient 9C, 0.5 mg daily
  stable improvements: reduction of intrusive and negative thoughts • Enhanced interpersonal communication • Reduced effort of reading • Enhanced quality of sleep
[1]; Patient 9C, 3 mg
  adverse effects: became irritable and experienced word finding difficulties
  intrusive thoughts, mood stability and concentration: initial improved ability to dismiss and ignore distressing, intrusive thoughts
[1]; Patient 9C, periods of complete withdrawal
  functioning during complete withdrawal: return to their pre-phenyloin functioning including a worsening of their symptoms of PTSD
[1]; patients with PTSD, Ultra low dose
  functional capacity and symptoms of PTSD: significant improvements in functional capacity as well as a reduction in the symptoms of PTSD
[2]; Patient 8A, bipolar mood disorder, compounded 2 mg capsule
  function: significant improvement in function
[2]; Patient 8A, 2 mg capsule
  improvements noted: enhanced organisation and planning • reduced effort required for social interaction • enhanced clarity of thought • a sense of being psychologically more normal
[2]; patients with bipolar spectrum disorders, much higher dose
  clinical effect of a much higher dose: good effect
[2]; some patients with bipolar mood disorder, very low dose added
  executive functioning: significant improvement in their executive functioning
[3]; Patient 7A (on antipsychotic medication), 2 mg daily
  communication, prosody and rate of speech: significant improvement in ability to communicate with less effort
[3]; Patient 7B, 1 mg sublingual
  speech and reading aloud a standard text: significant improvement in speech and ability to read aloud a standard text
[3]; Patient 7B, phenyloin withdrawn
  effects when withdrawn: Positive effects abated
[4]; Patient 4A, dose increased, second day
  clinical response to increased dose, following day: no dramatic improvement
[4]; Patient 4A, phenyloin ceased, followed by deterioration to pre-phenyloin functioning
  functioning over five days after cessation: gradual improvement in their functioning
[4]; Patient 4A, repeated sublingual dose
  developmental Eye Movement Test and Stroop test: consistent with the improved cognitive functioning
[4]; Patient 4A, same increased dose, third day
  clinical response to repeated dose, third day: noticeable deterioration in their ability to focus and organize their thinking
[4]; [12]
  ability to focus: dramatic and unexpected improvement in their ability to focus
  motor tics and vocalisations: repetitive chanting and hand movements ceased
[4]; Patient 4B, 3 mg
  reading: began reading for the first time in 10 years
[4]; Patient 4B, initial dose of 3 mg
  ability to organise and undertake tasks: unexpected and dramatic improvement in the ability to organise and undertake tasks
[4]; [13]
  effort required for communication: reduction in the effort required for communication
  subjective vision: enhanced clarity of vision
[4]; Patients 4A and 4B, further dose
  irritability and sense of being overwhelmed after a further dose: temporary relief
[4]; both cases (Patients 4A and 4B)
  duration of sustained improvements: over 12 months
[5]; high doses
  half-life: prolonged
[5]; in vivo
  metabolism: almost completely metabolized in the liver
  time for plasma concentration to reach steady-state level: 1-2 weeks
[5]; low doses
  half-life: less than 20 h
[6]; Patient 1A, possible dementia of Alzheimers type, 25 mg
  cognitive function, clinical response: some improvement but benefit was lost on continuation of this dose
[6]; Patient 1A, 3 mg daily
  duration of sustained benefit: over 24 months
[6]; Patient 1A, daily dose of 3 mg in divided doses orally
  cognitive function, clinical response: significant improvement
[6]; Patient 1A, withdrawal after 25 mg
  cognitive function after withdrawal of medication: transient improvement followed by a return to pre-phenyloin functioning
[6]; Patient 1B (treated with Donepezil), test dose 1 mg sublingual
  ability to read a standard text: significant improvement in their ability to read a standard text
[6]; Patient 1B, 1 mg sublingual
  time to improvement in reading after dose: ≤ 10 min
[6]; Patient 1B, 1 mg sublingual single dose
  functioning the following day after single dose: more able to initiate activities
[6]; Patient 1B, 1 mg sublingual, improved from 50
  Stroop Test part three accuracy after dose: 90%
[7]
  abnormal facial movements: abnormal facial movements ceased
[8]; Patient 5a, ADHD on psychostimulant and sodium valproate, 4 mg added
  overall functioning: further improvement in their overall functioning
[8]; Patient 5a, 4 mg added
  visual fatigue: visual fatigue no longer occurred
[8]; Patient 5b, ADHD on psychostimulants, 2 mg daily
  function: significant improvement in function
[8]; Patient 5b, 2 mg daily
  visual acuity: apparent improvement in their visual acuity
[8]; Patient 5c, 1 mg
  visual acuity whilst reading: immediate and unexpected improvement in visual acuity
[8]; Patient 5e, low dose
  judging distances when playing lawn bowls: improvement in their ability to accurately identify distances
[8]; Patient 5f, low dose
  visual judgement when playing soccer: improvement in visual judgement
[8]; 1 mg
  three-dimensional delicate work (visual acuity and depth perception): most consistent improvement
[8]; 2 mg
  three-dimensional delicate work (visual acuity and depth perception): improved
[9]; 300 mg per day in three doses, up to 400 mg/day, p<0.05
  increase in right brain volume: 6%
[9]; 300 to 400 mg/day
  improvements in memory and cognition: did not achieve statistical significance
[10]; Patient 2A, 1 mg daily
  visual acuity / contrast when reading: visual acuity had appeared to improve
[10]; Patient 2A
  benefits at a higher dose: not sustained at a higher dose
[10]; Patient 2B, 1 mg sub lingual dose
  reading, pseudo word component of WAIT: improved ability to read
[10]; Patient 2B, dose increased to 50 mg
  benefits at increased dose: beneficial effects were lost
[10]; Patient 2C, 1 mg daily
  visual acuity / contrast in the text when reading: visual acuity had appeared to improve
[10]; Patient 2C
  benefits at a higher dose: not sustained at a higher dose
[10]; Patient 2D, 0.5 mg dose
  ability to read: significant improvement in their ability to read with less effort
[11]; additional sublingual dose 1 mg on top of 3 mg modified release
  freedom of movement without pain: further acute improvement in the freedom of movement without pain
[11]; daily dose 3 mg modified release capsule
  control of chronic pain on maintenance: control of the chronic pain was maintained
[11]; sublingual 1 mg
  duration of relief: approximately 10 min
  vision during relief: enhancement in their vision
[11]; sublingual 1 mg, from 10/10 (most severe) before dose
  intensity of the pain after dose: 5/10
[11]; ultra low dose
  invasive and distressing nature of cervical pain: reduced with unexpected efficacy and rapidity
